# Source: patent US20140336219A2, “Pharmaceutical Compositions and Administrations Thereof” (Vertex Pharmaceuticals Incorporated, priority 2011, published 2014)
# Target: T1, ΔF508-CFTR (Homo sapiens, UniProt P13569, DEL508-508)
# T1 construct: expressed in transfected cells
# Experiment: Membrane potential optical assay for ΔF508-CFTR potentiation
# Type: cell-based
# Conditions: NIH 3T3 cells
# Text: The assay utilizes fluorescent voltage sensing dyes to measure changes in membrane potential using a fluorescent plate reader (e.g., FLIPR III, Molecular Devices, Inc.) as a readout for increase in functional ΔF508-CFTR in NIH 3T3 cells. The driving force for the response is the creation of a chloride ion gradient in conjunction with channel activation by a single liquid addition step after the cells have previously been treated with compounds and subsequently loaded with a voltage sensing dye. To identify potentiators of ΔF508-CFTR, a double-addition HTS assay format was developed. This HTS assay utilizes fluorescent voltage sensing dyes to measure changes in membrane potential on the FLIPR III as a measurement for increase in gating (conductance) of ΔF508 CFTR in temperature-corrected ΔF508 CFTR NIH 3T3 cells. The driving force for the response is a Cl^− ion gradient in conjunction with channel activation with forskolin in a single liquid addition step using a fluorescent plate reader such as FLIPR III after the cells have previously been treated with potentiator compounds (or DMSO vehicle control) and subsequently loaded with a redistribution dye. Bath Solution #1: (in mM) NaCl 160, KCl 4.5, CaCl2 2, MgCl2 1, HEPES 10, pH 7.4 with NaOH. Chloride-free bath solution: Chloride salts in Bath Solution #1 (above) are substituted with gluconate salts. […]
# T1 sequence (P13569 with tags, fused parts or gaps DEL508-508): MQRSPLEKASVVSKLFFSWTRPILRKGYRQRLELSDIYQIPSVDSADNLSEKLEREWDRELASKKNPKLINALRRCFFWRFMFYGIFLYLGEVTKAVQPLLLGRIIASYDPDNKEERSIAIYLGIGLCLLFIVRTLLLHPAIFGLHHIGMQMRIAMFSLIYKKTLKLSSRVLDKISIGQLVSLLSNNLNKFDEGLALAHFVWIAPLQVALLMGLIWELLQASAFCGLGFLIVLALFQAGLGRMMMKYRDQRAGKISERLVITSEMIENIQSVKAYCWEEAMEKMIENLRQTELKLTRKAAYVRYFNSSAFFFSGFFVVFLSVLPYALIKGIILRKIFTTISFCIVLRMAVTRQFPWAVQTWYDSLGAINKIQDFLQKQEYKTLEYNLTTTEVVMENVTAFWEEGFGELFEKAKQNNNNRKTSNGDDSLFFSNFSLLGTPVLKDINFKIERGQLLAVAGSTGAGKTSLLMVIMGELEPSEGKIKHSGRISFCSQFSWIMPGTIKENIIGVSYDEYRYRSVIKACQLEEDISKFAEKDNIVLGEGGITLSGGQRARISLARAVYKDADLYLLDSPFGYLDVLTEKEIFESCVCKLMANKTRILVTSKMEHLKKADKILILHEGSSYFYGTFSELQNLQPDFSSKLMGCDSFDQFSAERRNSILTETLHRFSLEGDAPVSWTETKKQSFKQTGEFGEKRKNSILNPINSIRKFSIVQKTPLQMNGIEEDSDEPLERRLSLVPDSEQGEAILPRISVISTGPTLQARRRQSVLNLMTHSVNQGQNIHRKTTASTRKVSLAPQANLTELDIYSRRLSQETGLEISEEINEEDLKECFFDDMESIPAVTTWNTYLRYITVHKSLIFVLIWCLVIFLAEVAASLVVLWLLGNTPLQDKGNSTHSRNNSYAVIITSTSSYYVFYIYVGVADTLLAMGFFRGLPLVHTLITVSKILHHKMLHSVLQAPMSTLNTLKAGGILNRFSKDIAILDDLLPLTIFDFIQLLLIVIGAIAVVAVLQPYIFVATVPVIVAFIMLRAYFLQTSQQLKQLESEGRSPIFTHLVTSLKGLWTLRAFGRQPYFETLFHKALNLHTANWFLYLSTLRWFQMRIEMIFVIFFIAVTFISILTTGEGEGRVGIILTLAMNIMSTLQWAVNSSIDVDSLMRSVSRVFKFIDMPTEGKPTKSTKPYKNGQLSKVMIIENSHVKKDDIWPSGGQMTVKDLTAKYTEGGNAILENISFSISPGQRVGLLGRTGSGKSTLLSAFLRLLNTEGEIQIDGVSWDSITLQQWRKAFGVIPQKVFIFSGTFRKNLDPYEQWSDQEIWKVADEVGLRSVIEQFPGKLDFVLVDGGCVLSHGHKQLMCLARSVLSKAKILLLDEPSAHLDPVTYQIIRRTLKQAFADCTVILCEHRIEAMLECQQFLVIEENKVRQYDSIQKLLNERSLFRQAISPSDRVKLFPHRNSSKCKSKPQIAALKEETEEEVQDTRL
smiles,measurement,value
"CC(C)(C)c1cc(C(C)(C)C)c(NC(=O)c2c[nH]c3ccccc3c2=O)cc1O [Compound 1, N-[2,4-bis(1,1-dimethylethyl)-5-hydroxyphenyl]-1,4-dihydro-4-oxoquinoline-3-carboxamide]",EC50,< 10 µM
